Experimental data from article PMC11238198, “Rejuvenation of Meropenem by Conjugation with Tilapia Piscidin-4 Peptide Targeting NDM-1 Escherichia coli” (ACS Omega, 2024).
No end group written: not given here.

Tests used:
NDM E. coli BAA 2452 [1] = experiment: microbe, parasite or virus in culture; format: cell-based, Escherichia coli; details: for MIC: NDM-1-positive MDR strain, Mueller Hinton broth, 37 °C, 16–20 h, three independent replicates, each in triplicate
Procedure: (§1) E. coli 8–8, A. baumannii 2982, and S. aureus 13–1 were procured from the Bioresource Collection and Research Center (BCRC), Taiwan. NDM-1-positive E. coli BAA 2452 was procured from ATCC. All strains were cultured in Mueller Hinton broth (MHB). The concentration of bacteria was identified by the absorbance at OD600. The colony forming units (CFU) corresponding to different OD600 values were identified by plating on the Mueller Hinton agar (MHA) plate.
(§2) Antibacterial analysis was performed according to a standard protocol.[32] Overnight cultures of test bacteria were prepared and freshly subcultured. Briefly, 50 μL of 1 × 10^6 CFU/mL bacterial cells was treated with 50 μL of peptide or conjugate at different concentrations in a 96-well plate. The plates were incubated at 37 °C for 16–20 h. The lowest concentration of peptide/conjugate showing no growth was considered the minimum inhibitory concentration (MIC). To identify the MIC (MBC), 5 μL of incubated suspensions from growth-free wells was plated onto MHA and incubated overnight at 37 °C. The lowest concentration of peptide/conjugate showing no growth on the MHA plate was considered to be the MBC. The experiments were performed in three independent replicates, each in triplicate.

RBCs = format: cell-based, Human
Procedure: Human RBCs were used to examine the hemolytic profiles of the peptides and conjugates. The RBCs were washed three times with PBS and centrifuged at 1000g. Then, 50 μL of a 2% RBC suspension was added to 50 μL of peptide/conjugate solution at different concentrations. The mixture was incubated at 37 °C for 1 h. The incubated mixture was centrifuged, and hemolysis was assessed by measuring the absorbance of the supernatant at 540 nm.

CCD966-SK cells = format: cell-based, human; details: 16 µM
Procedure: RAW 264.7 murine macrophage cells, CCD966-SK human fibroblast cells, and HaCaT human keratinocytes were procured from BCRC, Taiwan. RAW264.7 and HaCaT cells were cultivated in DMEM supplemented with 10% FBS, streptomycin (100 μg/mL), and penicillin (100 U/mL) at 37 °C and 5% CO2. CCD966-SK were cultivated in MEM with 0.1 mM nonessential amino acids with 10% FBS, streptomycin (100 μg/mL), and penicillin (100 U/mL) at 37 °C and 5% CO2. In vitro cytotoxicity of the TP4-Meropenem conjugates was evaluated with an alamarBlue assay. Briefly, 5 × 10^4 RAW264.7 cells/well or 5 × 10^3 CCD966-SK or 1 × 10^4 HaCaT cells/well were seeded in 96-well plates for 24 h and then treated with different concentrations of peptide/conjugate. Controls included 0.1% Triton-X-treated cells and cells in a culture medium. After 24 h of treatment, the cells were washed and incubated with 90 μL of DMEM and 10 μL of alamarBlue reagent for 2 h. The absorbances at 570 and 600 nm were measured using a Spectra Max i3 (Molecular Devices, CA). Cell viability was calculated using the formula as described in the protocol. The LDH assay was carried out using the cytotoxicity detection kit PLUS according to a previously described protocol.[33]

A. baumannii 2982 = experiment: microbe, parasite or virus in culture; format: cell-based, Acinetobacter baumannii; details: Mueller Hinton broth, 50 μL of 1 × 10^6 CFU/mL + 50 μL sample, 37 °C, 16–20 h, three independent replicates, each in triplicate
Procedure: as §1, §2

S. aureus 13–1 = experiment: microbe, parasite or virus in culture; format: cell-based; details: Mueller Hinton broth, 50 μL of 1 × 10^6 CFU/mL + 50 μL sample, 37 °C, 16–20 h, three independent replicates, each in triplicate
Procedure: as §1, §2

NDM E. coli BAA 2452 [2] = experiment: microbe, parasite or virus in culture; format: cell-based; details: Escherichia coli, BAA2452; 5 μL from growth-free wells plated onto MHA, overnight at 37 °C; three independent replicates, each in triplicate
Procedure: as §1, §2

E. coli 8–8 = format: cell-based, Escherichia coli; details: Mueller Hinton broth, 50 μL of 1 × 10^6 CFU/mL + 50 μL sample, 37 °C, 16–20 h; three independent replicates, each in triplicate
Procedure: as §1, §2

For “FIHHIIGGLFSAGKAIHRLIRRRRR [L-TP4, Tilapia piscidin-4] [listing 1 of 2 here]”, the “MIC NDM E. coli BAA 2452” value (NDM E. coli BAA 2452 [1]; BAA 2452) was 4 to 8 µM.

“FIHHIIGGLFSAGKAIHRLIRRRRR [L-TP4, Tilapia piscidin-4] [listing 2 of 2 here]” was tested, and the “hemolysis (% of the total cells) at 4 μM” value (RBCs; 4 µM) was 44.4 ± 4.3% and the “hemolysis (% of the total cells) at 8 μM” value (RBCs; 8 µM) was 84.1 ± 6.2%.

For “FIHHIIGGLFSAGKAIHRLIRRRRR [TP4, Tilapia piscidin-4]”, the “cell viability, CCD966-SK” value (CCD966-SK cells) was 23.9 ± 1.2%.

`C[C@@H](O)[C@H]1C(=O)N2C(C(=O)O)=C(S[C@@H]3CN[C@H](C(=O)N(C)C)C3)[C@H](C)[C@H]12` [Meropenem] showed an MIC (A. baumannii 2982; Acinetobacter baumannii, 2982, read-out: minimum inhibitory concentration (MIC) A. baumannii 2982) greater than 32 µM, an MIC (S. aureus 13–1; Staphylococcus aureus, read-out: minimum inhibitory concentration (MIC) S. aureus 13–1) of 0.25 µM and an MBC (NDM E. coli BAA 2452 [2]) greater than 64 µM. For the same compound, the MIC (NDM E. coli BAA 2452 [1]; Escherichia coli, BAA2452) was greater than 64 µM and the MIC (NDM E. coli BAA 2452 [1]) was greater than 64 µM.

In the case of D-Tilapia piscidin 4 [D-TP4], the “minimum inhibitory concentration (MIC) A. baumannii 2982” value (A. baumannii 2982) is reported as 2 to 4 µM, the “minimum inhibitory concentration (MIC) E. coli 8–8” value (E. coli 8–8) is reported as 2 to 4 µM and the “minimum inhibitory concentration (MIC) S. aureus 13–1” value (S. aureus 13–1) is reported as 2 to 4 µM.
